Patent US20240238398A1, “IMMUNOGENIC COMPOSITION” (GRIFFITH UNIVERSITY, priority 2021, published 2024)

Tests used:
[1] = test system: B. microti; assay: Assessment of chemically attenuated B. microti pRBCs in SCID mice; type: in vivo; settings: 10^6 B. microti pRBCs treated with 2 μM TF-A, intravenous, immunodeficient SCID mice
Protocol: FIG. 5: Assessment of chemically attenuated B. microti pRBCs in BALB/c and SCID mice. Related to FIGS. 1 and 2. BALB/c and SCID mice (n=5/group) were injected intravenously with 10^6 B. microti parasitized red blood cells (pRBCs) that were chemically attenuated with 2 μM of Tafuramycin-A (TF-A). Control mice received pRBCs that were not treated with TF-A. A. Parasitemia was monitored by microscopy post challenge. B. Mice were assessed for signs of disease and were scored based on defined criteria listed on a clinical scoresheet. Data are expressed as mean±SEM.
Chemical attenuation of B. microti with Tafuramycin-A (TF-A) was conducted as described previously (Good et al., 2013). Blood from mice infected with B. microti (as a source of pRBCs) and from naïve mice (as a source of mRBCs) were collected into EDTA tubes. TF-A was diluted to a 20 μM final concentration in RPMI-1640 with glutamine and added to a 25 cm^2 vented tissue culture flask to give a final TF-A concentration of 2 μM, 200 nM or 20 nM as required. One hundred microlitres of blood containing B. microti pRBCs or mRBCs was added into each flask, as required. […] A cell count was performed using a haemocytometer, the immunizing dose calculated, and the blood was resuspended in the required volume of PBS for injection. […]

[2] = test system: B. microti; assay: In vivo assessment of chemically attenuated B. microti pRBCs in BALB/c mice; settings: intravenous inoculation
Protocol: FIG. 1: In vivo assessment of chemically attenuated B. microti pRBCs. A and B. To assess attenuation of B. microti parasitized red blood cells (pRBCs), BALB/c mice (n=5/group) were injected intravenously with 10^6 pRBCs treated with 2 μM, 200 nM or 20 nM of Tafuramycin-A (TF-A). Control mice received 10^6 untreated pRBCs. C and D. The impact of parasite dose on protection induced by a chemically attenuated whole parasite B. microti vaccine. BALB/c mice (n=5/group) were immunized intravenously on days 0, 14 and 28 with 10^4, 10^5 or 10^6 B. microti parasitized red blood cells (pRBCs) that were chemically attenuated with 2 μM of Tafuramycin-A (TF-A). Control mice received 10^6 TF-A treated normal mouse red blood cells (mRBCs). Mice were challenged with 10^6 B. microti pRBCs two weeks after the final immunization. (A and C: Parasitemias were monitored by microscopy post challenge. B and D: Mice were assessed for signs of disease and were scored based on defined criteria listed on a clinical scoresheet. Data are expressed as mean±SEM). […]
Chemical attenuation of B. microti with Tafuramycin-A (TF-A) was conducted as described previously (Good et al., 2013). […] A cell count was performed using a haemocytometer, the immunizing dose calculated, and the blood was resuspended in the required volume of PBS for injection. […]

With `COc1cc2cc(C(=O)N3CC(CCl)c4c3cc(O)c3ccoc43)[nH]c2c(OC)c1OC` (stereo not shown) [TF-A, seco-iso-cyclopropylfurano[2,3-e]indoline-TMI] as the compound, how does the “signs of clinical disease” value [1] read?
Its value is “remained without signs of clinical disease”.

What about the “time microscopically clear of parasites” value [1] of the same compound?
Its value is 70 days.

And the “microscopically patent parasitemia and clinical signs of infection” value ([2]; 10^6 B. microti pRBCs attenuated with 200 nM TF-A)?
The value was “did not develop microscopically patent parasitemia nor clinical signs of infection”.

And the “microscopically patent parasitemia and clinical signs of infection” value ([2]; 10^6 B. microti pRBCs attenuated with 2 μM TF-A)?
The value was “did not develop microscopically patent parasitemia nor clinical signs of infection”.
